Values after ≈ are worked out from the molar mass of the structure shown. Each block holds one molecule with its values, some of them ahead of it.
Assays:
Format in all cases: cell-based
[1] = system: Botrytis cinerea; assay: 96-well microtiter fungal growth assay;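 also: percent relative to untreated positive growth controls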
Excerpt: (§1) Pathogen collection. Isolates of Colletotrichum acutatum Simmonds, Colletotrichum fragariae Brooks, and Colletotrichum gloeosporioides (Penz.) Penz. & Sacc. in Penz. were obtained from B. J. Smith, USDA, ARS, Small Fruit Research Station, Poplarville, Mass. Colletotrichum fragariae (isolate CF63), C. acutatum (isolate CAGoff), and C. gloeosporioides (isolate CG162) were used for all pathogen and bioautography studies. Isolate CF63 is one of the most virulent isolates at infecting strawberry plants and inducing both crown and fruit rot (Smith and Black, 1990). CF63, CAGoff, and CG162 were used as standard test isolates because of our extensive knowledge of these isolates and their known fungicide sensitivity profiles in both bioautography and microtiter formats. The three Colletotrichum species were isolated from strawberry (Fragaria xananassa Duchesne). Botrytis cinerea Pers.:Fr, was isolated from commercial grape (Vitis vinifera L.) and Fusarium oxysporum Schlechtend:Fr from orchid (Cynoches sp.) by David E. Wedge, USDA ARS Natural Products Utilization Research Unit. Phomopsis viticola (Sacc.) and P. obscurans (Ellis & Everh.) Sutton were from Mike A. Ellis, Ohio State University, Wooster, Ohio. Fungi were grown on potato-dextrose agar (PDA, Difco, Detroit Mich.) in 9 cm petri dishes and incubated in a growth chamber at 24±2° C. and under cool-white fluorescent lights ([…]·m^−2·sec^−1 light) with 12-h photoperiod.
(§2) Inoculum preparation. Conidia were harvested from 7–10 day-old cultures by flooding plates with 5 mL of sterile distilled water and dislodging conidia by softly brushing the colonies with an L-shaped glass rod. Conidial suspensions were filtered through sterile miracloth (Calbiochem-Novabiochem Corp., La Jolla Calif.) to remove mycelia. Conidia concentrations were determined photometrically, from a standard curve based on the absorbance at 625 nm and suspensions were then adjusted with sterile distilled water to a concentration of 1.0×10^6 conidia/mL.
(§3) Microtiter assay. A standardized 96-well microtiter plate assay developed for discovery of natural product fungicidal agents. A 96-well microtiter assay was used to determine sensitivity of B. cinerea, C. acutatum, C. fragariae, C. gloeosporioides, F. oxysporum, Phomopsis viticola, and P. obscurans to the various antifungal agents in comparison with known fungicidal standards. Vinclozolin, captan, and thiabendazole, which represent three different modes of action, were used as standards in this experiment. Each fungus was challenged in a dose-response format using test compounds where the final treatment concentrations were 0.3, 3.0 and 30.0 μM. Microtiter plates (Nunc MicroWell, untreated; Roskilde, Denmark) were covered with a plastic lid and incubated in a growth chamber at 24±1 C and 12 h photoperiod under 60±5 μmol light. Growth was then evaluated by measuring absorbance of each well at 620 nm using a microplate photometer (Packard Spectra Count, Packard Instrument Co., Downers Grove, Ill.).
(§4) Microbioassay Experimental Design. Chemical sensitivity of each fungus 96-well microtiter assay is used to determine sensitivity of B. cinerea, C. acutatum, C. fragariae, C. gloeosporioides, F. oxysporum, Phomopsis viticola, and P. obscurans. Each chemical is evaluated in duplicate at each dose (0.3, 3.0 and 30.0 μM) and repeated twice in time. Sixteen wells containing broth and inoculum serves as positive controls, eight wells containing solvent at the appropriate concentration and broth without inoculum are used as negative controls. Mean absorbance values and standard errors is used to evaluate fungal growth at 48 hrs and 72 hrs except for P. obscurans and P. viticola the data are recorded at 120 hrs. […] Treatments are arranged as a split-plot design replicated twice in time. Whole-plots were fungal isolates and sub-plots are chemicals. Each dose level and response time is analyzed separately. […]

[2] = system: Fusarium oxysporum; assay: 96-well microtiter fungal growth assay;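 also: percent relative to untreated positive growth controls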
Excerpt: as §1, §2, §3, §4

[3] = system: Colletotrichum fragariae; assay: 96-well microtiter fungal growth assay;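 also: percent relative to untreated positive growth controls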
Excerpt: as §1, §2, §3, §4

[4] = system: Colletotrichum gloeosporioides; assay: 96-well microtiter fungal growth assay;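 also: percent relative to untreated positive growth controls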
Excerpt: as §1, §2, §3, §4

[5] = system: Colletotrichum acutatum; assay: 96-well microtiter fungal growth assay;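 also: percent relative to untreated positive growth controls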
Excerpt: as §1, §2, §3, §4

[6] = system: Phomopsis obscurans; assay: 96-well microtiter fungal growth assay
Excerpt: as §1, §2, §3
(§5) Microbioassay Experimental Design. Chemical sensitivity of each fungus 96-well microtiter assay is used to determine sensitivity of B. cinerea, C. acutatum, C. fragariae, C. gloeosporioides, F. oxysporum, Phomopsis viticola, and P. obscurans. Each chemical is evaluated in duplicate at each dose (0.3, 3.0 and 30.0 μM) and repeated twice in time. Sixteen wells containing broth and inoculum serves as positive controls, eight wells containing solvent at the appropriate concentration and broth without inoculum are used as negative controls. […] Treatments are arranged as a split-plot design replicated twice in time. Whole-plots were fungal isolates and sub-plots are chemicals. Each dose level and response time is analyzed separately. The SAS system's analysis of variance procedure (Statistical Analysis System, Cary, N.C.) is used to identify significant factors and Fisher's protected LSD is used to separate means.

[7] = system: Phomopsis viticola; assay: 96-well microtiter fungal growth assay;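 also: percent relative to untreated positive growth controls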
Excerpt: as §1, §2, §3, §5

[8] = system: Azole-susceptible and Azole-resistant Candida albicans Strains; assay: Antifungal activity against azole-susceptible and azole-resistant patient isolates; conditions: for IC50 / IC80: Candida albicans
Experimental: Antimicrobial Assay. Susceptibility testing is performed using a modified version of the National Committee for Clinical Laboratory Standards methods. M intracelluare is tested using a modified method of Franzblau, et al. Seventy-two to 96 h prior to the assay, the M intracellulare subculture is prepared by resuspending cells from the surface of the slant in Middlebrook 7H9 broth with OADC enrichment and incubating at 37° C. and 10% CO2. On the day of the assay, prepared samples (dissolved in DMSO) are serially-diluted using 20%/0.9% DMSO/saline and transferred in duplicate to 96 well flat bottom microplates. Candida spp. and C. neoformans inocula are prepared by picking 1–3 colonies from agar plates and resuspending in ˜5 mL 0.9% sterile saline. The absorption of 10011 of the saline suspensions and the M. intracellulare subculture at 630 nm using the EL-340 Biokinetics Reader (Bio-Tek Instruments, Vermont) is compared either the 0.5 McFarland standard of 0.03 (Mi) or standard curves. The microorganisms are diluted in broth [RPMI 1640/2% dextrose/MOPS at pH 7.3 (Cellgro) for Candida spp., Sabouraud Dextrose for C. neoformans, and 5% Alamar Blue™(BioSource International, Camarillo, Calif.) in Middlebrook 7H9 broth with OADC enrichment, pH=7.3 for M. intracellulare to afford final target inocula of: Candida spp.: 1.0×10^4, C. neoformans: 1.0×10^5, and M. intracellulare: 2.0×10^6 after addition to the samples. The microbial inocula are added to the samples to achieve a final volume of 200 μl. Growth (saline only), solvent and blank (media only) controls are included on each test plate. Drug controls [Ciprofloxacin (ICN Biomedicals, Ohio) for bacteria and Amphotericin B (ICN Biomedicals, Ohio) for fungi] are included in each assay. All organisms are read at either 630 nm using the EL-340 Biokinetics Reader (Bio-Tek Instruments, Vermont) or 544ex/590em, (M. intracellulare) using the Polarstar Galaxy Plate Reader (BMG LabTechnologies, Germany) prior to and after incubation: Candida spp. at 37° C. for 18–24 h, C. neoformans at 30° C. for 72 h, and M. intracellulare at 37° C. and 10% CO2 for 72 h. Percent growth is calculated and plotted versus test concentration to afford the IC50 (sample concentration that affords 50% growth of the organism) and the minimum inhibitory concentration (MIC) and minimum fungicidal or bactericidal concentrations (MFC/MBCs). The MIC is defined as the lowest test concentration that allows no detectable growth (for M. intracellulare no color change from blue to pink). Minimum fungicidal or bactericidal concentrations are determined by removing 5 μl from each clear (or blue) well, transferring to agar and incubating as previously mentioned. The MFC/MBC is defined as the lowest test concentration that kills 100% of the organism (allows no growth on agar).
The bioassay method is a modified version of the National Committee for Clinical Laboratory Standards methods, and is same as the one described in example 8 by which the biological data of compounds 1 and 2 (Tables 1 and 2) were obtained, except that the pH of the culture media for Candida spp. was changed from 7.3 to 4.5.

[9] = Isolate 1, azole-susceptible strain (first listing, r6)
[10] = Isolate 1, azole-susceptible strain (second listing, r10)
[11] = Isolate 2, azole-resistant strain
[12] = Isolate 5, azole-resistant strain
[13] = Isolate 8, azole-resistant strain
[14] = Isolate 17, azole-resistant strain

Structure (SMILES): CO/C=C(/C(=O)OC)c1ccccc1Oc1cc(Oc2ccccc2C#N)ncn1 [Azoxystrobin]
Mean percent fungal growth inhibition of Botrytis cinerea ([1]; 0.3 μm, 48 hrs): −30.4 ± 40.8%
Mean percent fungal growth inhibition of Botrytis cinerea ([1]; 0.3 μm, 72 hrs): −67.3 ± 7.6%
Mean percent fungal growth inhibition of Botrytis cinerea ([1]; 3.0 μm, 48 hrs): −45.8 ± 32.5%
Mean percent fungal growth inhibition of Botrytis cinerea ([1]; 3.0 μm, 72 hrs): −79.8 ± 3.6%
Mean percent fungal growth inhibition of Botrytis cinerea ([1]; 30 μm, 48 hrs): −58.3 ± 26.5%
Mean percent fungal growth inhibition of Botrytis cinerea ([1]; 30 μm, 72 hrs): −89.1 ± 2.1%
Mean percent fungal growth inhibition of Fusarium oxysporum ([2]; 0.3 μm, 48 hrs): −13.0 ± 6.0%
Mean percent fungal growth inhibition of Fusarium oxysporum ([2]; 0.3 μm, 72 hrs): 3.8 ± 3.6%
Mean percent fungal growth inhibition of Fusarium oxysporum ([2]; 3.0 μm, 48 hrs): −66.4 ± 1.4%
Mean percent fungal growth inhibition of Fusarium oxysporum ([2]; 3.0 μm, 72 hrs): −40.1 ± 3.5%
Mean percent fungal growth inhibition of Fusarium oxysporum ([2]; 30 μm, 48 hrs): −87.3 ± 0.6%
Mean percent fungal growth inhibition of Fusarium oxysporum ([2]; 30 μm, 72 hrs): −64.6 ± 0.8%
Mean percent fungal growth inhibition of Colletotrichum fragariae ([3]; 0.3 μm, 48 hrs): −68.8 ± 4.0%
Mean percent fungal growth inhibition of Colletotrichum fragariae ([3]; 0.3 μm, 72 hrs): −33.5 ± 17.4%
Mean percent fungal growth inhibition of Colletotrichum fragariae ([3]; 3.0 μm, 48 hrs): −78.9 ± 4.4%
Mean percent fungal growth inhibition of Colletotrichum fragariae ([3]; 3.0 μm, 72 hrs): −80.6 ± 4.8%
Mean percent fungal growth inhibition of Colletotrichum fragariae ([3]; 30 μm, 48 hrs): −82.0 ± 4.9%
Mean percent fungal growth inhibition of Colletotrichum fragariae ([3]; 30 μm, 72 hrs): −86.4 ± 4.5%
Mean percent fungal growth inhibition of Colletotrichum gloeosporoides ([4]; 0.3 μm, 48 hrs): −91.2 ± 2.1%
Mean percent fungal growth inhibition of Colletotrichum gloeosporoides ([4]; 0.3 μm, 72 hrs): −71.0 ± 1.4%
Mean percent fungal growth inhibition of Colletotrichum gloeosporoides ([4]; 3.0 μm, 48 hrs): −96.3 ± 0.9%
Mean percent fungal growth inhibition of Colletotrichum gloeosporoides ([4]; 3.0 μm, 72 hrs): −87.6 ± 2.0%
Mean percent fungal growth inhibition of Colletotrichum gloeosporoides ([4]; 30 μm, 48 hrs): −97.7 ± 0.5%
Mean percent fungal growth inhibition of Colletotrichum gloeosporoides ([4]; 30 μm, 72 hrs): −89.8 ± 1.1%
Mean percent fungal growth inhibition of Colletotrichum acutatum ([5]; 0.3 μm, 48 hrs): −75.1 ± 1.8%
Mean percent fungal growth inhibition of Colletotrichum acutatum ([5]; 0.3 μm, 72 hrs): −46.0 ± 1.4%
Mean percent fungal growth inhibition of Colletotrichum acutatum ([5]; 3.0 μm, 48 hrs): −89.2 ± 1.8%
Mean percent fungal growth inhibition of Colletotrichum acutatum ([5]; 3.0 μm, 72 hrs): −77.4 ± 1.6%
Mean percent fungal growth inhibition of Colletotrichum acutatum ([5]; 30 μm, 48 hrs): −94.3 ± 1.1%
Mean percent fungal growth inhibition of Colletotrichum acutatum ([5]; 30 μm, 72 hrs): −84.1 ± 0.8%
Percent change in fungal growth vs control (negative = inhibition) ([6]; 0.3 μm, 120 hrs): −73.2 ± 6.7%
Percent change in fungal growth vs control (negative = inhibition) ([6]; 0.3 μm, 144 hrs): −70.2 ± 7.0%
Percent change in fungal growth vs control (negative = inhibition) ([6]; 3.0 μm, 120 hrs): −90.9 ± 6.5%
Percent change in fungal growth vs control (negative = inhibition) ([6]; 3.0 μm, 144 hrs): −87.5 ± 5.3%
Percent change in fungal growth vs control (negative = inhibition) ([6]; 30 μm, 120 hrs): −99.3 ± 0.5%
Percent change in fungal growth vs control (negative = inhibition) ([6]; 30 μm, 144 hrs): −98.2 ± 0.6%
Mean percent fungal growth inhibition of Phomopsis viticola ([7]; 0.3 μm, 120 hrs): −29.5 ± 45.0%
Mean percent fungal growth inhibition of Phomopsis viticola ([7]; 0.3 μm, 144 hrs): −73.4 ± 16.0%
Mean percent fungal growth inhibition of Phomopsis viticola ([7]; 3.0 μm, 120 hrs): −124.5 ± 33.0%
Mean percent fungal growth inhibition of Phomopsis viticola ([7]; 30 μm, 120 hrs): −154.1 ± 39.4%
Mean percent fungal growth inhibition of Phomopsis viticola ([7]; 30 μm, 144 hrs): −97.9 ± 1.3%

IC50 [8, 9]: 1 µg/mL (≈ 3.27 µM)
IC50 [8, 10]: 0.1 µg/mL (≈ 0.327 µM)
IC50 [8, 11]: 1 µg/mL (≈ 3.27 µM)
IC50 [8, 12]: 7.5 µg/mL (≈ 24.5 µM)
IC50 [8, 13]: 15 µg/mL (≈ 49 µM)
IC50 [8, 14]: 40 µg/mL (≈ 131 µM)
Structure (SMILES): OC(Cn1cncn1)(Cn1cncn1)c1ccc(F)cc1F [Fluconazole, reference compound]
IC80 [8, 9]: 1.5 µg/mL (≈ 4.9 µM)
IC80 [8, 10]: 0.2 µg/mL (≈ 0.653 µM)
IC80 [8, 11]: 5 µg/mL (≈ 16.3 µM)
IC80 [8, 12]: 10 µg/mL (≈ 32.7 µM)
IC80 [8, 13]: 20 µg/mL (≈ 65.3 µM)
IC80 [8, 14]: 95 µg/mL (≈ 310 µM)
IC95 [8, 9]: 2.00 µg/mL (≈ 6.53 µM)
IC95 [8, 10]: 100.00 µg/mL (≈ 327 µM)
IC95 [8, 11]: 10.00 µg/mL (≈ 32.7 µM)
IC95 [8, 12]: 10.00 µg/mL (≈ 32.7 µM)
IC95 [8, 13]: 25.00 µg/mL (≈ 81.6 µM)
Decreases in susceptibility to fluconazole of the isolates ([8]; resistant isolates relative to susceptible strain): up to 400 fold

Structure (SMILES): CCCCNC(=O)n1c(NC(=O)OC)nc2ccccc21 [benomyl]
IC50 ([6]; Paraphomopsis obscurans, 120 h, read-out: IC50 (growth inhibition)): < 6.25 µM
